Test results reported in ChEMBL document CHEMBL4184110 (Bioorg Med Chem Lett, 2018).
Converted amounts (≈) assume the structure as drawn.

Key:
[1] = biological target: T1, Peroxisome proliferator-activated receptor delta (Homo sapiens) (UniProt Q03181); test: Transactivation of CMV-fused PPARdelta-LBD-GAL4-DBD (unknown origin) expressed in HEK293T cells at 100 uM by luciferase reporter gene assay relative to GW0742; format: cell-based
T1 sequence (whole entry): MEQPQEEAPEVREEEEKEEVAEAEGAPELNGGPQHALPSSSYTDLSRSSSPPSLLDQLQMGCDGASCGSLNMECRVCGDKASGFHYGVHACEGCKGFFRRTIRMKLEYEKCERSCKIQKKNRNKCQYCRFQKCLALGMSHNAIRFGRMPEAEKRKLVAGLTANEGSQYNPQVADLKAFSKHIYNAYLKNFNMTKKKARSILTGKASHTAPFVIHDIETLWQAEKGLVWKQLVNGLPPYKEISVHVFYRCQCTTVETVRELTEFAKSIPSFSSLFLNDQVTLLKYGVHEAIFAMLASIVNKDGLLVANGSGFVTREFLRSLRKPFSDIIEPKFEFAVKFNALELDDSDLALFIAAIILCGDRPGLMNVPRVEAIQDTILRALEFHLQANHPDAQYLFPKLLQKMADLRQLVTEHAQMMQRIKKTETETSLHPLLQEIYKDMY

[2] = biological target: T2, Vitamin D3 receptor (Homo sapiens, UniProt P11473); test: Antagonist activity at VP16-fused VDR-LBD (unknown origin) expressed in HEK293T cells assessed as inhibition of ligand-induced GAL4-fused SRC1 coactivator recruitment by two-hybrid luciferase reporter gene assay; format: cell-based
T2 sequence (P11473 whole entry): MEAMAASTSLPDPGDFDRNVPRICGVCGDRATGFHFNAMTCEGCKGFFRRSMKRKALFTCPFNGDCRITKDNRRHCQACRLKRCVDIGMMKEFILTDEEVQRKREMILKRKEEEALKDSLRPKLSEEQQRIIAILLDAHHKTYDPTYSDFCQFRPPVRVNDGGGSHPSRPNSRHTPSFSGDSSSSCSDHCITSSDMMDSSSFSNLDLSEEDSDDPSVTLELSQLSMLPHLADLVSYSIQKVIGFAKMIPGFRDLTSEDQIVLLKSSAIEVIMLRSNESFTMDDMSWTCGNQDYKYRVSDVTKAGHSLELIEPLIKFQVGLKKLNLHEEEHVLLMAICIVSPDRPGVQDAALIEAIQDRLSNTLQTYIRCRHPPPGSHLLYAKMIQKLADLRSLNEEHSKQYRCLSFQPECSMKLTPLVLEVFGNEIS

[3] = biological target: T2, Vitamin D3 receptor; test: Agonist activity at VDR-LBD (unknown origin) assessed as recruitment of alexa fluor 647-labeled SRC2-3 after 30 mins by fluorescence polarization assay
[4] = tested on: HEK-293T; test: Cytotoxicity against HEK293T cells assessed as decrease in cell viability at 100 uM after 18 hrs by Cell Titer-Glo based luminescence assay relative to control; details: human
[5] = biological target: T2, Vitamin D3 receptor; test: Antagonist activity at CMV-fused VDR (unknown origin) expressed in HEK293T cells assessed as reduction in 24-hydroxylase promoter mediated transcriptional activity by luciferase reporter gene assay; format: cell-based
[6] = Aqueous solubility of the compound in DMSO at 500 uM by filter based assay; format: physicochemical
[7] = biological target: T3, Peroxisome proliferator-activated receptor delta (Homo sapiens, UniProt Q03181); test: Transactivation of CMV-fused PPARdelta-LBD-GAL4-DBD (unknown origin) expressed in HEK293T cells by luciferase reporter gene assay; format: cell-based
T3 sequence (Q03181 whole entry): T1 sequence (whole entry)

[8] = biological target: T2, Vitamin D3 receptor; test: Antagonist activity at VDR-LBD (unknown origin) assessed as inhibition of LG190178-induced recruitment of alexa fluor 647-labeled SRC2-3 after 30 mins by fluorescence polarization assay

Row | Compound | Activity [1] [%] | IC50 [2] [µM] | EC50 [3] | IC50 ([5]; read-out: IC50) [µM] | solubility kinetic at 500 µM [6] [µM] | EC50 ([7]; read-out: EC50) [µM] | IC50 [8] | EC50 [7] | IC50 [5] | Activity [4]
1 | COc1cccc(-c2nc(C)c(COc3ccc(C(=O)O)cc3)o2)c1 | 2.1 | > 80 | Not Active | > 100 | 457 (≈ 155 µg/mL) | 2.6 | Not Active | – | – | 27.2%
2 | COC(=O)c1ccccc1OCc1oc(-c2ccccc2OC)nc1C | – | 20.2 | Not Active | 3.25 | 185 (≈ 65.5 µg/mL) | – | Not Active | Not Active | – | 54.1%
3 | COC(=O)c1ccccc1OCc1oc(-c2cccc(OC)c2)nc1C | – | 15.4 | Not Active | 6.75 | 52.8 (≈ 18.7 µg/mL) | – | Not Active | Not Active | – | 94.6%
4 | COC(=O)c1cccc(OCc2oc(-c3cccc(OC)c3)nc2C)c1 | – | 17.1 | Not Active | 5.56 | 24.1 (≈ 8.52 µg/mL) | – | Not Active | Not Active | – | 59.3%
5 | COc1cccc(-c2nc(C)c(COc3cccc(C(=O)O)c3)o2)c1 | – | 33.1 | Not Active | 33.2 | 498 (≈ 169 µg/mL) | – | Not Active | Not Active | – | 23.9%
6 | COC(=O)CCc1ccc(OCc2oc(-c3cccc(OC)c3)nc2C)cc1 | 7.7 | 6.7 | Not Active | 2.88 | 38.2 (≈ 14.6 µg/mL) | 1.09 | Not Active | – | – | 67.6%
7 | COc1cccc(-c2nc(C)c(COc3ccccc3C(=O)O)o2)c1 | – | > 33 | Not Active | 40.4 | 264 (≈ 89.6 µg/mL) | – | Not Active | Not Active | – | 37.3%

Further lines, with some results ahead:

Row | Activity [1] [%] | IC50 [2] [µM] | EC50 [3] | IC50 ([5]; read-out: IC50) [µM] | solubility kinetic at 500 µM [6] [µM] | EC50 ([7]; read-out: EC50) [µM] | IC50 [8] | EC50 [7] | IC50 [5] | Compound | Activity [4]
8 | 8.5 | 27.7 | Not Active | 3.6 | 410 (≈ 145 µg/mL) | 1.8 | Not Active | – | – | COc1cccc(-c2nc(C)c(COc3ccc(CC(=O)O)cc3)o2)c1 | 34.5%
9 | – | 17.9 | Not Active | 4.85 | 62.6 (≈ 22.1 µg/mL) | – | Not Active | Not Active | – | COC(=O)c1ccc(OCc2oc(-c3ccccc3OC)nc2C)cc1 | 81.5%
10 | – | 13.6 | Not Active | 10.1 | 62.6 (≈ 23.9 µg/mL) | – | Not Active | Not Active | – | COC(=O)CCc1ccc(OCc2oc(-c3ccccc3OC)nc2C)cc1 | 79.9%
11 | – | > 80 | Not Active | – | 402 (≈ 136 µg/mL) | – | Not Active | Not Active | Not Active | COc1ccccc1-c1nc(C)c(COc2ccccc2C(=O)O)o1 | 4.1%
12 | 48 | > 80 | Not Active | – | 436 (≈ 154 µg/mL) | 11 | Not Active | – | Not Active | COc1ccccc1-c1nc(C)c(COc2ccc(CC(=O)O)cc2)o1 | Non-Toxic
13 | 30 | > 100 | Not Active | > 80 | 400 (≈ 147 µg/mL) | 4.6 | Not Active | – | – | COc1ccccc1-c1nc(C)c(COc2ccc(CCC(=O)O)cc2)o1 | 2.1%
14 | 22 | > 100 | Not Active | – | 423 (≈ 144 µg/mL) | 0.88 | Not Active | – | Not Active | COc1ccccc1-c1nc(C)c(COc2cccc(C(=O)O)c2)o1 | Non-Toxic
15 | 16 | > 80 | Not Active | – | 460 (≈ 156 µg/mL) | 8.7 | Not Active | – | Not Active | COc1ccccc1-c1nc(C)c(COc2ccc(C(=O)O)cc2)o1 | Non-Toxic
16 | 13.7 | 26.7 | Not Active | 3.35 | 234 (≈ 86.1 µg/mL) | 1.4 | Not Active | – | – | COc1cccc(-c2nc(C)c(COc3ccc(CCC(=O)O)cc3)o2)c1 | 41.2%
